Each structure is given as a SMILES string. Activity calls are given as the source filed them. The rule behind the calls is not given here.

In series [1] the test system is NHDF. Nature of the series: Cytotoxicity against human dermal fibroblast assessed as reduction in cell viability at 20 uM after 3 days by MTT assay. To be noted: 72 h, time 3 day. Format: cell-based. (In general: Formazan colour is commonly taken as a measure of viable cells.)
The test system of series [2] is NHDF. Nature of the series: Senolytic activity in 35 passages senescent human dermal fibroblast cells assessed as reduction cell viability at 20 uM after 3 days by MTT assay relative to control. Type of series: functional.
Series [3] deals with T1, Cyclin-dependent kinase inhibitor 2A (Homo sapiens) (UniProt P42771).
T1 sequence (whole entry): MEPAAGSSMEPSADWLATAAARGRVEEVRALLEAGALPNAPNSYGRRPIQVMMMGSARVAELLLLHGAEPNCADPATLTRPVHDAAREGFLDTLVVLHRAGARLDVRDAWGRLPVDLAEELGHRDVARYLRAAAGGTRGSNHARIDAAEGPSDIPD
As to the kind of experiment: Inhibition of GFP-tagged p16INK4A (unknown orgin) expressed in human dermal fibroblast at 20 uM after 24 hrs by renilla/firefly dual-luciferase reporter assay relative to control. Type of series: cell-based. The note with it: NHDF.

Regarding `O=C1c2c(cc(O)c3c2O[C@H](c2ccc(O)cc2)[C@H]3c2cc(O)cc(O)c2)O[C@@H](c2ccc(O)c(O)c2)[C@@H]1O`, the Activity entry in series [1] is on record as “Non-Toxic”.

On to `O=C1C[C@@H](CCc2cccc(O)c2)Oc2ccccc21`, for which the Activity result in series [1] is “Non-Toxic”.

In the case of `O=C1c2c(cc(O)c3c2O[C@H](c2ccc(O[C@@H]4O[C@H](CO)[C@@H](O)[C@H](O)[C@H]4O)cc2)[C@H]3c2cc(O)cc(O)c2)O[C@@H](c2ccc(O)c(O)c2)[C@@H]1O`, the Activity result in series [1] is listed as “Non-Toxic”.

Turning to `COc1cc(CCc2oc3ccccc3c(=O)c2OC)ccc1O`, in series [1], the Activity result was “Non-Toxic”.

Regarding `O=C1C[C@@H](CCc2ccc(O)cc2)Oc2ccccc21`, the Activity entry in series [1] is given as “Non-Toxic”. Further, in series [2] (time 3.0 day), the result was Active.

With `O=C1c2c(cc(O[C@@H]3O[C@H](CO)[C@@H](O)[C@H](O)[C@H]3O)c3c2O[C@H](c2ccc(O)cc2)[C@H]3c2cc(O)cc(O)c2)O[C@H](c2ccc(O)c(O)c2)[C@H]1O`, the Activity entry in series [1] is given as “Non-Toxic”.

Turning to `O=C1c2c(cc(O[C@@H]3O[C@H](CO)[C@@H](O)[C@H](O)[C@H]3O)c3c2O[C@H](c2ccc(O)cc2)[C@H]3c2cc(O)cc(O)c2)O[C@@H](c2ccc(O)c(O)c2)[C@@H]1O`, the Activity entry in series [1] is “Non-Toxic”.

Turning to `COc1cc(CCc2oc3ccccc3c(=O)c2O)ccc1O`, the Activity entry in series [1] was “Non-Toxic”.

On to `COc1cc(CC[C@@H]2CC(=O)c3ccccc3O2)ccc1O`, for which the Activity entry in series [1] is reported as “Non-Toxic”. Moreover, the result in series [2] (time 3.0 day) was Active.

With `O=C1c2c(cc(O)c3c2O[C@H](c2ccc(O)cc2)[C@H]3c2cc(O)cc(O)c2)O[C@@H](c2ccc(O)cc2)[C@@H]1O`, in series [1], the Activity result is reported as “Non-Toxic”.

Regarding `COc1c(CCc2cccc(O)c2)oc2ccccc2c1=O`, in series [1], the Activity entry was “Non-Toxic”.

What is called inhibition is how much of the control response was suppressed. On to `O=C1c2c(cc(O)c3c(-c4cc(O)cc(O)c4)c(-c4ccc(O)cc4)oc23)O[C@@H](c2ccc(O)cc2)[C@@H]1O`, for which the Activity result is “Non-Toxic” in series [1] and 34% in series [2] (time 3 day). Also, in series [3], the inhibition came out at 32%.

The values above are taken from ChEMBL document CHEMBL4673337, “Phenolic Constituents of the Roots of Rhamnoneuron balansae with Senolytic Activity” (J Nat Prod, 2020).
